Assay results as given in the NIST ThermoML archive (doi:10.1016/j.tca.2012.03.022).

Assay: molar heat capacity at constant pressure; wn = mass fraction of the nth substance listed
Conditions: 101 kPa, Crystal, Small sample (50 mg) DSC

[W] [tungsten] + [Cu]
molar heat capacity at constant pressure [J/K/mol]
Conditions | 295.15 K | 373.15 K | 473.15 K | 573.15 K | 673.15 K
w1 = 0.728 | 25.9 | 26.59 | 27.11 | 27.43 | 27.89
w1 = 0.761 | 24.67 | 25.12 | 25.61 | 25.91 | 26.04
w1 = 0.837 | 26.96 | 27.52 | 28.07 | 28.41 | 28.66
w1 = 0.889 | 25.66 | 26.21 | 26.68 | 26.95 | 27.19
w1 = 0.913 | 25.81 | 26.08 | 26.45 | 26.75 | 26.88
